Counter-ions that a name gives are not always drawn.
target: T1, POsterior Segregation (Caenorhabditis elegans, UniProt G5EF15); test: inhibitors of POS-1/mex-3 RNA binding, dose response, biochemical, fluorescence polarization (AID 1964)
T1 sequence (G5EF15 whole entry): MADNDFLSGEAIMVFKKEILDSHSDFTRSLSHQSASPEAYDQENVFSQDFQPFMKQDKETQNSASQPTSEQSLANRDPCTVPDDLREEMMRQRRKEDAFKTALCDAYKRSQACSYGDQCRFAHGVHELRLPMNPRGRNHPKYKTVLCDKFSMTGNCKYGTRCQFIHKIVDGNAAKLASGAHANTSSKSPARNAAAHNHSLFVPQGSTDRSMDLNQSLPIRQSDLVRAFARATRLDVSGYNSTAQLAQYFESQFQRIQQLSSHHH

Row | Compound | EC50
1 | COc1ccc(N=C(C(=C(Cl)C(Cl)Cl)[N+](=O)[O-])n2nnc3ccccc32)cc1 [N-[(1E)-1-(1-benzotriazolyl)-3,4,4-trichloro-2-nitrobuta-1,3-dienyl]-4-methoxyaniline] | 88.5 µM
2 | C=CCOc1cccc(C2C(C(=O)c3cc4ccccc4o3)C(=O)C(=O)N2c2cc(C)on2)c1 (stereo not given) [3-(1-benzofuran-2-carbonyl)-4-hydroxy-1-(5-methyl-1,2-oxazol-3-yl)-2-(3-prop-2-enoxyphenyl)-2H-pyrrol-5-one] | > 300 µM
3 | NC(=O)c1ccccc1N=CCC(=O)c1ccc(F)cc1 [2-[[(E)-3-(4-fluorophenyl)-3-keto-prop-1-enyl]amino]benzamide] | > 300 µM
4 | O=C1NC(=O)N(Cc2ccccc2Cl)C(=O)C1=CNc1ccc(F)cc1 [(5E)-1-(2-chlorobenzyl)-5-[(4-fluoroanilino)methylene]barbituric acid] | > 300 µM
5 | COc1ccc(CCN2C(=O)NC(=O)C(=CNNC(=O)c3ccncc3)C2=O)cc1OC [Isonicotinic acid N'-[1-[2-(3,4-dimethoxy-phenyl)-ethyl]-2,4,6-trioxo-tetrahydro-pyrimidin-(5E)-ylidenemethyl]-hydrazide] | 150 µM
6 | Cc1cc(-c2ccccc2)nc(N=NCc2ccc(O)cc2O)n1 [SMR000513422] | > 300 µM
7 | COc1ccc(N2C(=O)NC(=O)C(=Cc3c[nH]c4ccc(Br)cc34)C2=O)c(OC)c1 [(5E)-5-[(5-bromo-1H-indol-3-yl)methylene]-1-(2,4-dimethoxyphenyl)pyrimidine-2,4,6(1H,3H,5H)-trione] | > 300 µM
8 | CC1(C)CC(=O)C2=C(C1)OC(=N)C(C#N)C2c1ccc2c(c1)OCO2 (stereo not given) [SMR000514966] | > 300 µM
9 | O=C(CC(=O)c1ccccc1)C(=O)NNC(=O)c1ccccc1[N+](=O)[O-] [2-Nitro-benzoic acid N'-(2-hydroxy-4-oxo-4-phenyl-but-2-enoyl)-hydrazide] | 70 µM
10 | Cc1ccc(Cl)c2c1=NC(=O)C=2NNc1ccccc1 | 18.6 µM
11 | Cc1cc(O)c(C(C)C)cc1Nc1csc(=O)[nH]1 [SMR000034713] | 38.9 µM
12 | CC1=NC(c2ccccc2)C(C#N)(C#N)C(C#N)(C#N)C1 (stereo not given) [SMR000037705] | 3.14 µM
13 | Cc1[nH]n(C(N)=S)c(=O)c1N=Nc1cccc(C(=O)O)c1 [3-[(1-carbamothioyl-3-methyl-5-oxo-4H-pyrazol-4-yl)diazenyl]benzoic acid] | 35.1 µM
14 | Cc1c(C(=O)NN=Cc2ccco2)[nH][nH]c1=O | > 300 µM
15 | CN1CCC2=C(C#N)C(=N)C(C#N)(C#N)C(c3ccncc3)C2C1 (stereo not given) [6-amino-2-methyl-8-(4-pyridyl)-1,3,8,8a-tetrahydroisoquinoline-5,7,7-tricarbonitrile] | 52.9 µM
16 | COc1cc(CN=Nc2ccc([N+](=O)[O-])cc2)ccc1OCC(=O)Nc1ccc(C)c(C)c1 [MLS000537060] | > 300 µM
17 | CCOc1ccc(N=C(C(=C(Cl)C(Cl)Cl)[N+](=O)[O-])n2cncn2)cc1 [MLS000519210] | 46.9 µM
18 | CCCCCCN1C(=O)C(=CNc2ccccc2N2CCOCC2)C(=O)NC1=S [MLS000333666] | > 300 µM
19 | Cc1cc(C=C2C(=O)NC(=O)N(c3ccccc3)C2=O)c(C)n1-c1ccc(F)cc1 [(5Z)-5-[[1-(4-fluorophenyl)-2,5-dimethyl-3-pyrrolyl]methylidene]-1-phenyl-1,3-diazinane-2,4,6-trione] | 101 µM
20 | COc1ccc(NC=C2C(=O)NC(=S)N(Cc3ccccc3)C2=O)c(OC)c1 [1-Benzyl-5-[1-(2,4-dimethoxy-phenylamino)-meth-(Z)-ylidene]-2-thioxo-dihydro-pyrimidine-4,6-dione] | > 300 µM

Row | Compound | EC50
21 | Cn1c2cc(=N)ccc-2c2ccc(N)cc2c1-c1ccccc1 [(3-amino-5-methyl-6-phenyl-phenanthridin-5-ium-8-yl)amine;bromide] | 13.5 µM
22 | C=CCn1c(=O)c(=Cc2ccc(C)o2)s/c1=C(\C#N)C(=O)c1ccccc1 [2-[3-allyl-4-keto-5-[(5-methyl-2-furyl)methylene]thiazolidin-2-ylidene]-3-keto-3-phenyl-propionitrile] | 30.7 µM
23 | COc1ccc(C2C3=C(CC(C)(C)CC3=O)OC(=N)C2C#N)cc1 (stereo not given) [2-amino-4-(4-methoxyphenyl)-7,7-dimethyl-5-oxo-6,8-dihydro-4H-1-benzopyran-3-carbonitrile] | 69.7 µM
24 | COc1cc(C2C3=C(CCCC3=O)OC(=N)C2C#N)cc2c1OCO2 (stereo not given) | > 300 µM
25 | N#CC1C(=N)C2=C(N3CCCCC3)CCCC2C1(C#N)C#N (stereo not given) [3-Amino-4-piperidin-1-yl-5,6,7,7a-tetrahydro-indene-1,1,2-tricarbonitrile] | 89.4 µM
26 | COc1cccc(C2C3CN(C)CCC3=C(C#N)C(=N)C2(C#N)C#N)c1OC (stereo not given) [6-Amino-8-(2,3-dimethoxy-phenyl)-2-methyl-2,3,8,8a-tetrahydro-1H-isoquinoline-5,7,7-tricarbonitrile] | 2.18 µM
27 | COC(=O)c1ccc(-n2c(C)cc(CN=Nc3nc(C)cc(=O)[nH]3)c2C)cc1 [SMR000364461] | > 300 µM
28 | Oc1ccc(CN=Nc2ccc(Cl)nn2)c(O)c1O | 50 µM
29 | O=C1C(=O)N(c2ncccn2)C(c2cccs2)C1C(=O)c1ccco1 (stereo not given) [3-(furan-2-carbonyl)-4-hydroxy-1-pyrimidin-2-yl-2-thiophen-2-yl-2H-pyrrol-5-one] | 39.9 µM
30 | c1ccc(C2=NNC(c3ccccn3)N=N2)nc1 (stereo not given) [SMR000549436] | 25.3 µM
31 | O=C(O)c1cc(-c2ccc(CN=Nc3ccc([N+](=O)[O-])cn3)o2)ccc1Cl [2-chloro-5-[5-[[(5-nitropyridin-2-yl)hydrazinylidene]methyl]furan-2-yl]benzoic acid] | 31 µM
32 | COc1ccc(C2C(C(=O)c3cccs3)C(=O)C(=O)N2c2nnc(C)s2)cc1OC (stereo not given) [2-(3,4-dimethoxyphenyl)-1-(5-methyl-1,3,4-thiadiazol-2-yl)-4-oxidanyl-3-thiophen-2-ylcarbonyl-2H-pyrrol-5-one] | 7.2 µM
33 | COc1ccc(C2C(C(=O)c3cccs3)C(=O)C(=O)N2c2nncs2)cc1 (stereo not given) | 0.549 µM
34 | O=C(CC=Nc1ccc([N+](=O)[O-])cc1)c1ccc(Br)cc1 [(E)-1-(4-bromophenyl)-3-(4-nitroanilino)-2-propen-1-one] | > 300 µM
35 | Cc1cc(CN=Nc2ccc([N+](=O)[O-])cn2)c(C)n1-c1ccc(C(=O)O)cc1 [4-{2,5-dimethyl-3-[2-(5-nitro-2-pyridinyl)carbonohydrazonoyl]-1H-pyrrol-1-yl}benzoic acid] | > 300 µM
36 | CN(C)c1ccc(O)c2c1CC1CC3C(N(C)C)C(=O)C(C(N)=O)C(=O)[C@@]3(O)C(=O)C1C2=O (stereo partly drawn) [(2E,12aS)-2-[azanyl(oxidanyl)methylidene]-4,7-bis(dimethylamino)-10,11,12a-tris(oxidanyl)-4a,5,5a,6-tetrahydro-4H-tetracene-1,3,12-trione;hydrochloride] | > 300 µM
37 | C=CCN1C(=O)NC(=O)C(=CNc2ccc(N(CC)CC)cc2)C1=O [(5E)-1-allyl-5-[[4-(diethylamino)anilino]methylene]barbituric acid] | 109 µM
38 | Cc1c(NC=C2C(=O)N(C)C(=O)c3ccccc32)c(=O)n(-c2ccccc2)n1C [(4E)-4-[[(1,5-dimethyl-3-oxo-2-phenyl-4-pyrazolyl)amino]methylidene]-2-methylisoquinoline-1,3-dione] | > 300 µM
39 | N#CCC(=N)C(C#N)C#N [1,1,3-tricyano-2-amino-1-propene] | 54.9 µM
40 | O=[N+]([O-])c1ccc(/N=N/c2ncc[nH]2)cc1 [N-(imidazol-2-ylideneamino)-4-nitroaniline] | 69.1 µM
